This is an account of results in ChEMBL document CHEMBL1124960, “Histamine H3 ligands: just pharmacological tools or potential therapeutic agents?” (J Med Chem, 1990).

Some results are limits rather than exact numbers.

In test [1] the target is T1, Histamine H3 receptor (Rattus norvegicus, UniProt Q9QYN8). Nature of the test: Evaluated for antagonist activity against Histamine H3 receptor and represented as KB. It is filed as functional.
In test [2] the target is Histamine H1 receptor (Cavia porcellus) (UniProt P31389). The test can be described thus: Evaluated for agonistic activity at histamine H1 receptor of guinea pig ileum and is represented as potency. It is filed as functional, tissue-based.
In test [3] the target is Histamine H2 receptor (Cavia porcellus) (UniProt P47747). Nature of the test: Evaluated for agonistic activity at histamine H2 receptor of guinea pig atrium and is represented as potency. The conditions noted are these: Cardiac atrium. The test is classed as functional, tissue-based.
The target of test [4] is Histamine H1 receptor (Cavia porcellus) (UniProt P31389). The test can be described thus: Evaluated for agonistic activity at histamine H1 receptor of guinea pig ileum and is represented as intrinsic activity. The test is classed as functional, tissue-based.
Test [5] deals with T1, Histamine H3 receptor. Nature of the test: Evaluated for antagonistic activity at histamine H3 receptor in rat cerebral cortex and is represented as Ki. The test is classed as functional, tissue-based.
Test [6] addresses Histamine H2 receptor (Cavia porcellus) (UniProt P47747). Nature of the test: Evaluated for agonistic activity at histamine H2 receptor of guinea pig atrium and is represented as intrinsic activity. The test is classed as functional, tissue-based. The conditions noted are these: Cardiac atrium.
Test [7] deals with Histamine H3 receptor (Rattus norvegicus) (UniProt Q9QYN8). The test can be described thus: Evaluated for antagonist activity against histamine H3 receptor and represented as KB. It is filed as functional.
Target sequence in this assay (Q9QYN8 whole entry): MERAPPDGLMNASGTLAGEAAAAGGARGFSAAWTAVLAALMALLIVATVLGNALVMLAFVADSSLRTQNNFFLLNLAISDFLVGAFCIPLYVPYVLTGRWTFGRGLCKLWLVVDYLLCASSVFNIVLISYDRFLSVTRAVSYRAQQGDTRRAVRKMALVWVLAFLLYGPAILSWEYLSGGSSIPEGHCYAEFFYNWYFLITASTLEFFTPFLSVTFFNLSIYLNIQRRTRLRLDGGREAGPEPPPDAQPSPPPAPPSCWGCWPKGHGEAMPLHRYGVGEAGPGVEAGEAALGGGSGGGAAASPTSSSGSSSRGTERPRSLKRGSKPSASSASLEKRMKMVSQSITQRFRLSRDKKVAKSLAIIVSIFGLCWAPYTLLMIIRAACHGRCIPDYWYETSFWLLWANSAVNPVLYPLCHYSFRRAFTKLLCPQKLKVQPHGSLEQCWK
For test [8], the species on record is Rattus norvegicus. The test can be described thus: Evaluated for inhibition of [3H]histamine release from preloaded slices and is represented as pD2. It is filed as functional.
For test [9], the species on record is Rattus norvegicus. The test can be described thus: Relative inhibition of [3H]histamine release from pre-loaded slices of rat cerebral cortex. It is filed as functional.
For test [10], the target named is Histamine H1 receptor (Cavia porcellus) (UniProt P31389). The test can be described thus: Evaluated for activity at Histamine H1 receptor in guinea pig ileum. It is filed as tissue-based.
For test [11], the target named is Histamine H2 receptor (Cavia porcellus) (UniProt P47747). The test can be described thus: Evaluated for activity at Histamine H2 receptor in guinea pig ileum. The test is classed as tissue-based.
Test [12] has the same target. Nature of the test: Evaluated for agonistic activity at histamine H2 receptor of guinea pig atrium and is represented as potency. The test is classed as functional, tissue-based. The following applies: Cardiac atrium.
Test [13] shares this target. Nature of the test: Evaluated for agonistic (intrinsic) activity at histamine H2 receptor of guinea pig atrium and is represented as intrinsic activity. The conditions noted are these: Cardiac atrium. It is filed as functional, tissue-based.
Test [14] concerns the target T1, Histamine H3 receptor. The test can be described thus: Evaluated for antagonistic activity at histamine H3 receptor in rat cerebral cortex and is represented as Ki. It is filed as functional, tissue-based.
The target of test [15] is Histamine H1 receptor (Cavia porcellus) (UniProt P31389). The test can be described thus: Evaluated for antagonist activity against histamine H1 receptor and represented as KB. It is filed as functional.
Test [16] deals with Histamine H3 receptor (Rattus norvegicus) (UniProt Q9QYN8). The test can be described thus: Evaluated for antagonist activity against histamine H3 receptor and represented as KB. The test is classed as functional.
Target sequence in this assay (Q9QYN8 whole entry): as above
Test [17] deals with Histamine H2 receptor (Cavia porcellus) (UniProt P47747). Nature of the test: Evaluated for activity against histamine H2 receptor in guinea pig atrium and represented as intrinsic activity. The conditions noted are these: Cardiac atrium.
The target of test [18] is Histamine H3 receptor (Rattus norvegicus) (UniProt Q9QYN8). The test can be described thus: Evaluated for activity against H3 receptor and represented as %recovery histamine release at a concentration 5 x 10 E -6M.
Target sequence in this assay (Q9QYN8 whole entry, looked up): as the sequence (Q9QYN8 whole entry) above
Test [19] concerns the target Histamine H2 receptor (Cavia porcellus) (UniProt P47747). Nature of the test: Evaluated for activity against histamine H2 receptor in guinea pig gastric secretion and represented as pD2. The following applies: Stomach. It is filed as tissue-based.
The target is the same in test [20]. Nature of the test: Evaluated for activity against histamine H2 receptor in guinea pig atrium and represented as alpha. It is filed as tissue-based. The conditions noted are these: Cardiac atrium.
For test [21] the target is unchanged. The test can be described thus: Evaluated for activity against histamine H2 receptor in guinea pig gastric secretion and represented as alpha. It is filed as tissue-based. The following applies: Stomach.
Test [22] is filed under the species Rattus norvegicus. The test can be described thus: Histamine level after treatment was determined in hypothalamus. It is filed as functional.
For test [23], the species on record is Rattus norvegicus. The test can be described thus: Histamine level after treatment was determined in spleen. It is filed as functional.
The species entered for test [24] is Rattus norvegicus. Nature of the test: Histamine level after treatment was determined in adbominal skin. It is filed as functional.
The species named for test [25] is Rattus norvegicus. Nature of the test: Histamine level after treatment was determined in cerebral cortex. The test is classed as functional.
The species named for test [26] is Rattus norvegicus. Nature of the test: Histamine level after treatment was determined in colon. It is filed as functional.
For test [27], the species on record is Rattus norvegicus. Nature of the test: Inhibition of [3H]histamine release from preloaded slices of rat cerebral cortex as pD2. It is filed as functional.
Test [28] concerns the target Histamine H1 receptor (Cavia porcellus) (UniProt P31389). The test can be described thus: Evaluated for their activity at histamine H1 receptor in guinea pig ileum. It is filed as tissue-based.
Test [29] concerns the target Histamine H2 receptor (Cavia porcellus) (UniProt P47747). The test can be described thus: Evaluated for their activity at histamine H2 receptor in guinea pig ileum. It is filed as tissue-based.
The target is the same in test [30]. The test can be described thus: Evaluated for activity against Histamine H2 receptor in guinea pig atrium and represented as alpha. It is filed as tissue-based. The conditions noted are these: Cardiac atrium.
A further test concerns the target Histamine H2 receptor (Cavia porcellus, UniProt P47747). Nature of the test: Evaluated for activity against Histamine H2 receptor in guinea pig atrium and represented pA2. The test is classed as tissue-based, Cardiac atrium. The conditions noted are these: read-out: pA2 (converted).

T1 sequence (Q9QYN8 whole entry): as above
Chain of Histamine H1 receptor (Cavia porcellus) (P31389 whole entry): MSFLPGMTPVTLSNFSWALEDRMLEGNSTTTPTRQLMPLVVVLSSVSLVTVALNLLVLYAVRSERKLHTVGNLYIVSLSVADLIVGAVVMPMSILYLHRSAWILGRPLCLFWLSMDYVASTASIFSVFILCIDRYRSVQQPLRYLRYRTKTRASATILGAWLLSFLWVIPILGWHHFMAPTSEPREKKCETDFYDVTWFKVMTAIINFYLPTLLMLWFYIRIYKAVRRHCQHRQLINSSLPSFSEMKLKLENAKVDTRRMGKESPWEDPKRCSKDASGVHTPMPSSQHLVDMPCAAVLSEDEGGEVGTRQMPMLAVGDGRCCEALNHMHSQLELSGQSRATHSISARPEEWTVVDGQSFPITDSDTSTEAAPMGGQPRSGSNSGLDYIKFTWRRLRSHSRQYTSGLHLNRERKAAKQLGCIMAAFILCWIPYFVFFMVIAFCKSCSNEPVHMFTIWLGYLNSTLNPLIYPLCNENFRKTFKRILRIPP
Chain of Histamine H2 receptor (Cavia porcellus) (P47747 whole entry): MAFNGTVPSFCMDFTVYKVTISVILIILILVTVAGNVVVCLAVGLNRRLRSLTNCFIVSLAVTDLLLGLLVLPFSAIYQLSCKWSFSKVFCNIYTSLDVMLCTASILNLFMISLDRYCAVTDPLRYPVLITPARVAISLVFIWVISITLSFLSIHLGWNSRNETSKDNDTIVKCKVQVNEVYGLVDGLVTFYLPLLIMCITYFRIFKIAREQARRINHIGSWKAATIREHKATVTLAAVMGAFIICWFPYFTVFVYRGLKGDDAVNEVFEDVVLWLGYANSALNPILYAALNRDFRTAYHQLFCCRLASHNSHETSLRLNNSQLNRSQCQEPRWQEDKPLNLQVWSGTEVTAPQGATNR
Chain of Histamine H2 receptor (P47747 whole entry): as above

A word on the Ki: it is a measure of affinity in units of concentration, obtained from inhibition or displacement. A higher Ki goes with weaker binding. `O=C(CCCc1ccccn1)NCCc1c[nH]cn1` showed a Ki on Histamine H3 receptor [1] of 1 µM.

With `Cc1nc[nH]c1CSCCNC(=N)N[C@H](C)Cc1c[nH]cn1` [SOPROMIDINE], in test [2], the Potency came out at 1.7. Besides, the pD2 in test [3] is 6.92. Further, the Activity was found to be 0.2 in test [4] and 1 in [6]. Moreover, affinity at Histamine H3 receptor [5] was put at a Ki of 0.06 µM.

As usually defined, the KB is the equilibrium dissociation constant of an antagonist, usually derived from a functional assay. A higher KB goes with lower antagonist affinity. In test [7], `CN(C)CC[C@H](c1ccc(Cl)cc1)c1ccccn1` returned a KB above 58 nM.

`O=C(CCc1ccccc1)NCCc1cnc[nH]1` showed a Ki at Histamine H3 receptor [1] of 0.631 µM.

In the test listed under Rattus norvegicus [8], `CNCCc1cnc[nH]1` yielded a pD2 of 8.7. This compound also showed a Ratio_EC50 in the test filed under Rattus norvegicus [9] of 270. The Activity was determined as 72 in test [10] and 74 in [11].

On to `Cc1nc[nH]c1CSCCN/C(N)=N/C(C)Cc1c[nH]cn1` (stereo not drawn), for which, in test [12], the pD2 was 6.48. The compound also gave an Activity in test [13] of 0.8.

`Cc1ncc(CCN)[nH]1` [2-METHYLHISTAMINE] returned a Ratio_EC50 in the test filed under Rattus norvegicus [9] below 0.008. In addition, the results for the Activity in test [10] and in [11] were 16.5 and 4.4, respectively.

Regarding `Cc1nc[nH]c1CSCCNC(N)=N[C@@H](C)Cc1cnc[nH]1`, the affinity at Histamine H3 receptor [14], expressed as Ki, was 0.04 µM.

`O=C(CCCCc1ccccc1)NCCc1cnc[nH]1` showed a Ki at Histamine H3 receptor [1] of 0.2 µM.

Turning to `O=C(CCCc1ccccc1)NCCc1cnc[nH]1`, on Histamine H3 receptor [1], the Ki is 0.0794 µM.

As for `COc1ccc(CN(CCN(C)C)c2ccccn2)cc1`, the values for the antagonist equilibrium constant (KB) in test [15] and in test [16] were 440 pM and above 58 nM, respectively.

`N=C(N)Nc1nc(CSCC/N=C(\N)NCCCc2c[nH]cn2)cs1` registered an intrinsic activity in [17] of 1. In addition, the Release in test [18] is 100%. Besides, the pD2 in test [19] was found to be 7.9; in [21] it was 8.2. The same compound registered an Activity in test [20] of 1.

In the case of `C[C@@H](N)Cc1c[nH]cn1`, the Histamine level stood at 85 in the test listed under Rattus norvegicus [22]; 69 in the test listed under Rattus norvegicus [23]; 65 in the test filed under Rattus norvegicus [24]; 68 in the test listed under Rattus norvegicus [25]; 81 in the test filed under Rattus norvegicus [26]. In the test listed under Rattus norvegicus [9], this compound returned a Ratio_EC50 of 1550. Also, the Activity in test [10] is 0.49; in test [11], 1.02.

For `C[C@H](N)Cc1c[nH]cn1`, the Ratio_EC50 in the test listed under Rattus norvegicus [9] came out at 13. Further, the Activity in test [10] was determined as 0.49; in test [11], 1.74.

`CN(C)CCc1cnc[nH]1` displayed a Ratio_EC50 in the test listed under Rattus norvegicus [9] of 170. Further, the pD2 in the test listed under Rattus norvegicus [27] is 7.3. Besides, the Activity in test [28] came to 44; in [29] it was 51.

As to `CSCC/N=C(\NC#N)NCCCc1c[nH]cn1` [VUF-8406], the Activity in test [30] worked out at 0. This compound also yielded a Release in test [18] of 100%. Further, the Kb on Histamine H2 receptor was 0.0158 µM.

In the test filed under Rattus norvegicus [9], `Cc1nc[nH]c1CCN` [4-METHYLHISTAMINE] registered a Ratio_EC50 below 0.008. Further, the values for the Activity in [10] and in [11] were 0.23 and 43, respectively.
